The results in this text go back to patent US9670227B2, “Thienopyrimidine derivatives, a process for their preparation and pharmaceutical compositions containing them” (LES LABORATOIRES SERVIER, priority 2013, dated 2017).

In this assay the target is Mcl-1 protein (UniProtKB primary accession number: Q07820) (Homo sapiens, UniProt Q07820). The assay can be described thus: Inhibition of Mcl-1 by fluorescence polarisation, Method 1. It is filed as binding. Conditions: for IC50: fluorescence polarisation test, Method 2 values are underlined in the patent (underlining not visible here), read-out: IC50 (M) Mcl-1 FP; for percentage fluorescence polarisation inhibition (Mcl-1 FP), partial inhibitors: @ 10 uM test compound. The procedure, abridged: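 Fluorescence polarisation competition with an 11-point compound dilution series (final DMSO 5%). Mcl-1 protein at 5 nM and fluorescein-labelled ligand at 1 nM (final) in 10 mM HEPES, 150 mM NaCl, 0.05% Tween 20, pH 7.4.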
Sequence of Mcl-1 protein (Q07820 whole entry): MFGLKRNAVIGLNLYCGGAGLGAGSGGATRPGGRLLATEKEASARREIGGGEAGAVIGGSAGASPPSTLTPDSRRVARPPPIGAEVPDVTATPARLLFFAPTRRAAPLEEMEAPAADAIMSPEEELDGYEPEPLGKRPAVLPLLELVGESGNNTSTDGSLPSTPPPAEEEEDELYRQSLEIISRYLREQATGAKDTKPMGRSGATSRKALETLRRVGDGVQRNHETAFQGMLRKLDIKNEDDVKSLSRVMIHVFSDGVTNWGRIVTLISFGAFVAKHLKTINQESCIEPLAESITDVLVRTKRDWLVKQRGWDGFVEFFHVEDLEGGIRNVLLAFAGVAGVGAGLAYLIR

On to `COc1ccccc1CC(Oc1ncnc2sc(-c3ccco3)c(-c3ccc(OCC4CNCCO4)c(Cl)c3C)c12)C(=O)O` [Example 315, (2R)-2-({(5Sa)-5-[3-chloro-2-methyl-4-(morpholin-2-ylmethoxy)phenyl]-6-(furan-2-yl)thieno[2,3-d]pyrimidin-4-yl}oxy)-3-(2-methoxyphenyl)propanoic acid], for which the 50% inhibitory concentration (IC50) was 2.2e-08 M.
The same measure, in the same setting: then `COc1ccccc1CC(Oc1ncnc2sc(-c3ccco3)c(-c3ccc(OCCN4CCN(C)C(=O)C4)c(Cl)c3C)c12)C(=O)O` [Example 321, (2R)-2-{[(5Sa)-5-{3-chloro-2-methyl-4-[2-(4-methyl-3-oxopiperazin-1-yl)ethoxy]phenyl}-6-(furan-2-yl)thieno[2,3-d]pyrimidin-4-yl]oxy}-3-(2-methoxyphenyl)propanoic acid], with 6e-09 M; and `COc1ccccc1CC(Oc1ncnc2sc(-c3ccco3)c(-c3ccc(OCCN4CCN(C(C)=O)CC4)c(Cl)c3C)c12)C(=O)O` [Example 323, (2R)-2-{[(5Sa)-5-{4-[2-(4-acetylpiperazin-1-yl)ethoxy]-3-chloro-2-methylphenyl}-6-(furan-2-yl)thieno[2,3-d]pyrimidin-4-yl]oxy}-3-(2-methoxyphenyl)propanoic acid], with 8.8e-09 M.
Take `COc1ccccc1CC(Oc1ncnc2sc(-c3ccco3)c(-c3ccc(OCCN4CCN(c5ccccc5)CC4)c(Cl)c3C)c12)C(=O)O` [Example 325, (2R)-2-{[(5Sa)-5-{3-chloro-2-methyl-4-[2-(4-phenylpiperazin-1-yl)ethoxy]phenyl}-6-(furan-2-yl)thieno[2,3-d]pyrimidin-4-yl]oxy}-3-(2-methoxyphenyl)propanoic acid]: the half-maximal inhibitory concentration (IC50) came out at 5.2e-08 M.
`COc1ccccc1CC(Oc1ncnc2sc(-c3ccco3)c(-c3ccc(OCCN4CCN(CC(N)=O)CC4)c(Cl)c3C)c12)C(=O)O` [Example 326, (2R)-2-{[(5Sa)-5-(4-{2-[4-(2-amino-2-oxoethyl)piperazin-1-yl]ethoxy}-3-chloro-2-methylphenyl)-6-(furan-2-yl)thieno[2,3-d]pyrimidin-4-yl]oxy}-3-(2-methoxyphenyl)propanoic acid]: the IC50 was 7.9e-09 M.
Same read-out and setting: then `COc1ccccc1CC(Oc1ncnc2sc(-c3ccco3)c(-c3ccc(OCCN4CCN(CC(F)(F)F)CC4)c(Cl)c3C)c12)C(=O)O` [Example 327, (2R)-2-{[(5Sa)-5-(3-chloro-2-methyl-4-{2-[4-(2,2,2-trifluoroethyl)piperazin-1-yl]ethoxy}phenyl)-6-(furan-2-yl)thieno[2,3-d]pyrimidin-4-yl]oxy}-3-(2-methoxyphenyl)propanoic acid], with 1.5e-08 M; and `COc1ccccc1CC(Oc1ncnc2sc(-c3ccco3)c(-c3ccc(OC(=O)CN4CCN(C)CC4)c(Cl)c3C)c12)C(=O)O` [Example 332, (2R)-2-{[(5Sa)-5-(3-chloro-2-methyl-4-{[(4-methylpiperazin-1-yl)acetyl]oxy}phenyl)-6-(furan-2-yl)thieno[2,3-d]pyrimidin-4-yl]oxy}-3-(2-methoxyphenyl)propanoic acid], with 1.3e-08 M.
As to `CCc1c(-c2c(-c3ccco3)sc3ncnc(O[C@H](Cc4ccccc4OC)C(=O)O)c23)ccc(OCCN2CCN(C)CC2)c1Cl` [Example 336, (2R)-2-{[(5Ra)-5-{3-chloro-2-ethyl-4-[2-(4-methylpiperazin-1-yl)ethoxy]phenyl}-6-(furan-2-yl)thieno[2,3-d]pyrimidin-4-yl]oxy}-3-(2-methoxyphenyl)propanoic acid], the “percentage fluorescence polarisation inhibition (Mcl-1 FP), partial inhibitors” value came out at 43.2% @ 10 uM.
The same measure, in the same setting: then `Cc1c(-c2c(-c3ccco3)sc3ncnc(O[C@@H](C(=O)O)c4ccccc4)c23)ccc(OCCN2CCN(C)CC2)c1Cl` [Example 339, (2R)-{[(5Ra)-5-{3-chloro-2-methyl-4-[2-(4-methylpiperazin-1-yl)ethoxy]phenyl}-6-(furan-2-yl)thieno[2,3-d]pyrimidin-4-yl]oxy}(phenyl)ethanoic acid], with 18.85% @ 10 uM.
`Cc1c(-c2c(-c3ccco3)sc3ncnc(OC(C(=O)O)c4ccccc4)c23)ccc(OCCN2CCN(C)CC2)c1Cl` [Example 340, (2R)-{[(5Sa)-5-{3-chloro-2-methyl-4-[2-(4-methylpiperazin-1-yl)ethoxy]phenyl}-6-(furan-2-yl)thieno[2,3-d]pyrimidin-4-yl]oxy}(phenyl)ethanoic acid]: the half-maximal inhibitory concentration (IC50) was found to be 6.7e-07 M.
Take `Cc1c(-c2c(-c3ccco3)sc3ncnc(OC(Cc4cccc(F)c4F)C(=O)O)c23)ccc(OCCN2CCN(C)CC2)c1Cl` [Example 350, (2R)-2-{[(5Sa)-5-{3-chloro-2-methyl-4-[2-(4-methylpiperazin-1-yl)ethoxy]phenyl}-6-(furan-2-yl)thieno[2,3-d]pyrimidin-4-yl]oxy}-3-(2,3-difluorophenyl)propanoic acid]: the IC50 turned out to be 2.8e-08 M.
Still for that read-out and setting: next, `Cc1c(-c2c(-c3ccco3)sc3ncnc(O[C@H](Cc4ccccc4C(F)(F)F)C(=O)O)c23)ccc(OCCN2CCN(C)CC2)c1Cl` [Example 353, (2R)-2-{[(5Sa)-5-{3-chloro-2-methyl-4-[2-(4-methylpiperazin-1-yl)ethoxy]phenyl}-6-(furan-2-yl)thieno[2,3-d]pyrimidin-4-yl]oxy}-3-[2-(trifluoromethyl)phenyl]propanoic acid]: 2.8e-08 M; `Cc1c(-c2c(-c3ccco3)sc3ncnc(OC(Cc4ccccc4CN)C(=O)O)c23)ccc(OCCN2CCN(C)CC2)c1Cl` [Example 355, (2R)-3-[2-(aminomethyl)phenyl]-2-{[(5Sa)-5-{3-chloro-2-methyl-4-[2-(4-methylpiperazin-1-yl)ethoxy]phenyl}-6-(furan-2-yl)thieno[2,3-d]pyrimidin-4-yl]oxy}propanoic acid]: 3e-08 M; `CC(=O)NCc1ccccc1CC(Oc1ncnc2sc(-c3ccco3)c(-c3ccc(OCCN4CCN(C)CC4)c(Cl)c3C)c12)C(=O)O` [Example 356, (2R)-3-{2-[(acetylamino)methyl]phenyl}-2-{[(5Sa)-5-{3-chloro-2-methyl-4-[2-(4-methylpiperazin-1-yl)ethoxy]phenyl}-6-(furan-2-yl)thieno[2,3-d]pyrimidin-4-yl]oxy}propanoic acid]: 1.1e-08 M.
For `Cc1c(-c2c(-c3ccco3)sc3ncnc(OC(Cc4ccccc4SCC(F)(F)F)C(=O)O)c23)ccc(OCCN2CCN(C)CC2)c1Cl` [Example 361, (2S)-2-{[(5Ra)-5-{3-chloro-2-methyl-4-[2-(4-methylpiperazin-1-yl)ethoxy]phenyl}-6-(furan-2-yl)thieno[2,3-d]pyrimidin-4-yl]oxy}-3-{2-[(2,2,2-trifluoroethyl)sulfanyl]phenyl}propanoic acid], the IC50 came to 7.1e-07 M.
Same read-out and setting: next, `COc1ccccc1CC(Oc1ncnc2sc(-c3ccc(Cl)o3)c(-c3ccc(OCCN4CCN(C)CC4)c(Cl)c3C)c12)C(=O)O` [Example 363, (2R)-2-{[6-(5-chlorofuran-2-yl)-(5Sa)-5-{3-chloro-2-methyl-4-[2-(4-methylpiperazin-1-yl)ethoxy]phenyl}thieno[2,3-d]pyrimidin-4-yl]oxy}-3-(2-methoxyphenyl)propanoic acid]: 7.7e-09 M; `CCc1sc2ncnc(OC(Cc3ccccc3)C(=O)O)c2c1-c1ccc(OCC(=O)N2CCN(C)CC2)c(Cl)c1C` [Example 392, (2R)-2-[((5Sa)-5-{3-chloro-2-methyl-4-[2-(4-methylpiperazin-1-yl)-2-oxoethoxy]phenyl}-6-ethylthieno[2,3-d]pyrimidin-4-yl)oxy]-3-phenylpropanoic acid]: 3e-08 M.
